From patent publication US20180078916A1, “LIGNIN-BASED SURFACTANTS” (CARNEGIE MELLON UNIVERSITY, priority 2015, published 2018)

Test system: corn plants
Assay: clethodim application to corn plants with tank-mix adjuvants, % inhibition versus untreated control plants
Type: in vivo
Settings: clethodim 1 fluid ounce/acre without tank-mix adjuvants, 7 days following treatment
Text: Various surfactants are used as adjuvants for agrochemicals to enhance deposition and penetration through plant surfaces. Two commercial tank-mix adjuvant systems that may be used for comparison are PRIME OIL® and SUPERB® HC (available from Winfield Solutions, LLC of Shoreview, Minn.), which are high surfactant oil concentrates. Representative studied were based on delivery of clethodim at 1 fluid ounce/acre, a commercial herbicide that inhibits growth of certain plants. A measure of effectiveness was the % inhibition (with 0% being no inhibition) compared to untreated control plants. Photographs (a)-(e) of FIG. 11 provide images of corn plants (corn being a common contaminant crop in soybean fields) treated with different formulations 7 days after treatment. Comparatively good results are obtained with clethodim and KLPEG900. Lignin adjuvant activity appeared to be higher at 0.05% v/v that 0.1% v/v.
FIG. 12 illustrates a graph wherein % inhibition is plotted for the different formulations 7 days following treatment.

## CCSC(C)CC1CC(=O)C(/C(CC)=N/OC/C=C/Cl)=C(O)C1 (stereo not shown) [Clethodim, clethodim]
  % inhibition: 54.4%
